Assay results from the supplement of paper PMC10307832.

Experiments:
Experiment in all cases: relative viability (nuclei count vs DMSO), 5 days (fraction); higher = more cells survive
[1] = compound: Cc1cc(Nc2cc(N3CCN(C)CC3)nc(Sc3ccc(NC(=O)C4CC4)cc3)n2)n[nH]1 [Tozasertib] + Nc1nc2[nH]cc(CCc3ccc(C(=O)N[C@@H](CCC(=O)O)C(=O)O)cc3)c2c(=O)[nH]1 [Pemetrexed] (partner 0.2 µM)
In short: (§1)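 Cells from lung cancer lines were seeded into 1536-well plates and, one day later, dosed by pin tool. Treatments were either a single drug or a fixed dose of an anchor drug with five library-drug doses (not always all listed) in √10 steps. After 5 days, nuclei were stained in a one-step fixation (final 0.05% Triton X-100, 1% formaldehyde, 1 ug/ml Hoechst) and counted on 4× images, and relative viability is the treated-to-vehicle nuclei ratio, as the median of duplicate plates.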

[2] = compound: Cc1cc(Nc2cc(N3CCN(C)CC3)nc(Sc3ccc(NC(=O)C4CC4)cc3)n2)n[nH]1 [Tozasertib] + C[C@@H](Oc1cc(-c2cnn(C3CCNCC3)c2)cnc1N)c1c(Cl)ccc(F)c1Cl [Crizotinib] (partner 1 µM)
In short: as §1

[3] = compound: Cc1cc(Nc2cc(N3CCN(C)CC3)nc(Sc3ccc(NC(=O)C4CC4)cc3)n2)n[nH]1 [Tozasertib] + O=C(CCCCCCC(=O)Nc1ccccc1)NO [Vorinostat] (partner 1 µM)
In short: as §1

[4] = compound: Cc1cc(Nc2cc(N3CCN(C)CC3)nc(Sc3ccc(NC(=O)C4CC4)cc3)n2)n[nH]1 [Tozasertib] + CC(=O)c1c(C)c2cnc(Nc3ccc(N4CCNCC4)cn3)nc2n(C2CCCC2)c1=O [Palbociclib] (partner 0.5 µM)
In short: as §1

[5] = compound: Cc1cc(Nc2cc(N3CCN(C)CC3)nc(Sc3ccc(NC(=O)C4CC4)cc3)n2)n[nH]1 [Tozasertib] + Nc1ncn([C@H]2C[C@H](O)[C@@H](CO)O2)c(=O)n1 [Decitabine] (partner 2 µM)
In short: as §1

Cell Line	relative viability ([1]; first compound 0.004 µM)	relative viability ([1]; first compound 0.01265 µM)	relative viability ([1]; first compound 0.04 µM)	relative viability ([1]; first compound 0.1265 µM)	relative viability ([2]; first compound 0.004 µM)	relative viability ([2]; first compound 0.01265 µM)	relative viability ([2]; first compound 0.04 µM)	relative viability ([3]; first compound 0.004 µM)	relative viability ([3]; first compound 0.04 µM)	relative viability ([3]; first compound 0.1265 µM)	relative viability ([4]; first compound 0.004 µM)	relative viability ([4]; first compound 0.01265 µM)	relative viability ([4]; first compound 0.04 µM)	relative viability ([4]; first compound 0.1265 µM)	relative viability ([5]; first compound 0.004 µM)	relative viability ([5]; first compound 0.01265 µM)	relative viability ([5]; first compound 0.04 µM)	relative viability ([5]; first compound 0.1265 µM)	relative viability ([2]; first compound 0.1265 µM)	relative viability ([3]; first compound 0.01265 µM)
EPLC-272H	0.341	0.381	0.258	0.206	0.851	1.03	0.823	0.521	0.318	0.287	0.367	0.313	0.318	0.356	0.369	0.325	0.368	0.318		
UMC-11	0.852	0.809	0.78	0.26	0.478	0.568	0.416	0.408	0.291	0.16	0.345	0.317	0.356	0.248	0.597	0.499	0.548	0.189	0.118	0.327
NCI-H1793	1.02		1.16	0.458				0.785	0.931	0.267	0.307	0.312	0.367	0.295	0.555	0.495	0.508	0.397		0.654
NCI-H2405	1.01	1.12	0.973	0.894	0.844	0.83	0.857	1.16	1.02	0.594	0.558	0.538	0.498	0.527	0.721	0.699	0.715	0.683	0.67	0.809
NCI-H661	1.01	0.833	0.933	0.561	1.06	1.05	0.885	0.912	0.549	0.312	0.412	0.406	0.425	0.299	0.65	0.599	0.569	0.304	0.605	0.806
NCI-H1993	0.587	0.605	0.634	0.476	0.931	0.776	0.845	0.754	1.11	0.408	0.622	0.63	0.681	0.743	0.549	0.542		0.574	0.581	0.824
NCI-H322M	0.575	0.585	0.629	0.478	0.891	0.894	0.552	0.91	0.984	0.588		0.515	0.466	0.486	0.656	0.661	0.675	0.618	0.584	0.828
NCI-H1651	0.593	0.615	0.582	0.433	0.892	0.81	0.906	0.603		0.361	0.54	0.515	0.539	0.519	0.608	0.623	0.611	0.437	0.867	0.56
LCLC-103H	0.482	0.46	0.444	0.45	0.993	1.05	1.1	0.842	0.743	0.544	0.481	0.45	0.502	0.52	0.689	0.621	0.775	0.683	1.07	0.863
HCC-44	0.677	0.552	0.604	0.599	0.861	0.891	0.801	1.09	1.04	0.901	1.03	0.954	1.02	0.874	0.935	0.917	0.87	0.766	0.705	1
NCI-H2085	0.935	0.815	1.03	0.802	0.953	0.959	0.667	0.797		0.603	0.462	0.455	0.464	0.475	0.578	0.508	0.538	0.485	0.597	0.714
RERF-LC-KJ	0.465	0.442	0.486	0.361	0.815	0.792	0.734		0.654	0.478	1.14	0.973	1.01	0.969	0.532	0.592	0.645	0.508	0.689	0.519
NCI-H1355	1.12	0.974	1.03	0.948	1.09	1.09	1.09	0.594	0.669	0.516	0.362	0.424	0.457	0.391	0.357	0.35	0.33	0.357	0.775	0.571
NCI-H522	0.931	1.16	0.927	0.837				0.917	0.759	0.782	1.03	1.02	1.06	0.749	0.655	0.746	0.647	0.622		1.14
LU99A	0.165	0.155	0.207	0.193	0.627	0.514	0.466	0.544	0.428	0.339	0.423	0.386	0.369	0.324	0.968	0.859	0.785	0.504	0.27	0.423
LOU-NH91	0.421	0.409	0.372	0.39	0.619	0.703	0.754	0.761	0.983	0.707	0.526	0.536	0.512	0.529	0.681	0.791	0.812	0.762	0.722	0.889
NCI-H3122	0.193	0.214	0.191	0.218	0.26	0.287	0.289	0.852	0.869	0.485	0.157	0.159	0.211	0.201	0.444	0.356	0.48	0.494	0.277	1.07
LK-2	0.307	0.354	0.287	0.134	0.19		0.239	0.287	0.28	0.197	0.736	0.782	0.887	0.378	0.428	0.291	0.363	0.141	0.244	0.321

Cell Line	relative viability ([1]; first compound 0.004 µM)	relative viability ([1]; first compound 0.01265 µM)	relative viability ([1]; first compound 0.04 µM)	relative viability ([1]; first compound 0.1265 µM)	relative viability ([2]; first compound 0.004 µM)	relative viability ([2]; first compound 0.01265 µM)	relative viability ([2]; first compound 0.04 µM)	relative viability ([3]; first compound 0.004 µM)	relative viability ([3]; first compound 0.04 µM)	relative viability ([3]; first compound 0.1265 µM)	relative viability ([4]; first compound 0.004 µM)	relative viability ([4]; first compound 0.01265 µM)	relative viability ([4]; first compound 0.04 µM)	relative viability ([4]; first compound 0.1265 µM)	relative viability ([5]; first compound 0.004 µM)	relative viability ([5]; first compound 0.01265 µM)	relative viability ([5]; first compound 0.04 µM)	relative viability ([5]; first compound 0.1265 µM)	relative viability ([2]; first compound 0.1265 µM)	relative viability ([3]; first compound 0.01265 µM)
ChaGo-K-1	0.255	0.268	0.254	0.264	1.19	1.12	0.957	0.75	0.714	0.265	0.902	0.881	0.949	0.477	0.506	0.463	0.49	0.446	0.331	0.683
HOP-62	0.396	0.299	0.32	0.362	1.03	0.964	0.941	0.621	0.628	0.462	0.53	0.483	0.556	0.439	0.213	0.234	0.194	0.196	0.776	0.483
201T	0.33	0.283	0.377	0.362	1.02	1.05	1.06	0.939	0.968	0.946	0.355	0.362	0.364	0.224	0.854	0.844	0.874	0.83	1.01	0.902
LCLC-97TM1	0.191	0.157	0.15	0.18		0.288	0.257	0.69	0.644	0.153	0.232	0.223	0.222	0.21	0.222	0.232	0.235	0.185	0.189	0.639
NCI-H2023	0.239	0.241	0.246	0.213	0.717	0.704	0.611	0.547	0.518	0.16	0.409	0.384	0.417	0.243	0.223	0.237	0.217	0.169	0.403	0.674
COR-L23	0.206	0.206	0.187	0.179	0.695	0.667	0.453	0.522	0.393	0.198	0.309	0.297	0.274	0.161	0.42	0.384	0.439	0.247	0.412	0.403
NCI-H460	0.0596	0.0601	0.0605	0.0623	0.871	0.874	0.767	0.83	0.912	0.163	0.172	0.18	0.196	0.115	0.456	0.53	0.493	0.284	0.197	0.769
NCI-H1703					1.58	0.848	0.318												0.24	
A549					0.839	0.745	0.393								0.27	0.266	0.282	0.199	0.0848	
NCI-H727					0.683	0.783	0.787	1.12	1.13	0.82	0.554	0.573	0.629	0.563	0.942		0.803	0.645	0.402	1.12
ABC-1					1.21	0.992	0.565	1.35	0.767	0.306	0.722	0.769	0.44	0.533	0.989	1.03	0.539	0.44	0.249	1
NCI-H596	0.549	0.477		0.473	1.09	0.949	1.01	0.655	0.72	0.451					0.984	0.948	0.853	0.888	0.79	0.538
NCI-H2228	0.319	0.32	0.376	0.322	0.487		0.452	0.668	0.585	0.49	0.994	0.764	0.671	0.453					0.186	0.402
NCI-H1395	0.979	0.797	0.864	0.584				0.944	0.643	0.353	0.613	0.612	0.632	0.56	0.724	0.674	0.673	0.524		0.641
CAL-12T	1.3	1.14	1.25	1.01	0.823	0.635	0.454	0.694	0.751	0.305	0.713	0.41	0.459	0.242					0.325	0.677
NCI-H1792	0.928	0.616	0.895	0.515	0.951	0.9	1.16				0.731	0.594	0.758	0.61	0.601	0.534	0.482	0.505	0.913	
NCI-H2342	0.809	0.778	0.744	0.759				0.77	0.782	0.597	0.491	0.511	0.476	0.531	0.678	0.738	0.723	0.766		0.78
